Assay results reported in US4775743A, “Peptide derivatives” (Green Cross Corporation, priority 1985, dated 1988).
Square brackets hold non-standard residues; d marks the D form. Ends that are not written are not given here. Peptide text beside a SMILES is read from it. * marks the point of attachment. Desaminotyrosyl = O=C(CCc1ccc(O)cc1)*; Hyp = O=C(O)[C@@H]1C[C@@H](O)CN1

Tests used:
[1] = test system: rat PRP (platelet-rich plasma) / rat washed platelets; assay: Platelet agglutination inhibitory action (in vitro); type: cell-based; conditions: agglutination induced by arachidonic acid (1 mM), thrombin (0.8 U/ml) or Ca ionophore A-23187 (4 μM), FIGS. 1, 2 and 3
Method: Blood samples were taken from the abdominal artery of rats by means of a syringe containing 3.8% solution of sodium citrate, and the mixture (sodium citrate:blood=1:9) was centrifuged for ten minutes, giving platelet-rich plasma (PRP).
PRP thus collected was placed in cuvettes and kept in an incubator held at 37° C. for two minutes. Solutions of the compound obtained in Example 1 with different concentrations (diluted with a solution of 1.5 mM EDTA in a mixture of Tris-HCl buffer and sodium chloride solution (1:5)) were added, the resulting mixture in each cuvette was incubated for three minutes, and Ca ionophore A-23187 (final concentration: 4 μM), arachidonic acid (1 mM) or thrombin (0.8 U/ml) was added to measure the degree of agglutination. A solution of heparin sodium was used in place of sodium citrate when arachidonic acid was employed as agglutination inducer.

[2] = background statement on the prior-art compound; cited from earlier work

Compound | strength of inhibitory effect against platelet agglutination relative to compound P (control) [1] | half-life in the blood [2]
C[C@H](NC(=O)CNC(=O)[C@@H]1C[C@@H](O)CN1C(=O)[C@@H]1CCCN1C(=O)CCc1ccc(O)cc1)C(=O)NCC(=O)O [HP, N-3-(4-hydroxyphenyl)propionyl-L-prolyl-L-hydroxyprolyl-glycyl-L-alanyl-glycine] (Desaminotyrosyl-P[Hyp]GAG-OH) | about ten | 
P[Hyp]GAG [Compound P] |  | about ten
